Tested on: T24 bladder cancer cell lines
Assay: StaRT-PCR gene expression, SC23
Format: cell-based, human
Procedure: FIG. 21 illustrates RT-PCR gene expression analysis. Total RNA form T24 cells was isolated and cDNA was synthesized with 2.5 ug of total RNA. Standardized RT-PCR was performed with GENE system I gene expression kit (Gene Express Inc.). Each kit contains a mixture of the internal competitive templates and the corresponding primers.
Total RNA form T24 cells were isolated after 3h, Oh, 12h, 24h, and 48h exposure to SC23.
StaRT-PCR™ (Standardized Reverse Transcription Polymerase Chain Reaction). First described by Willey et al. ((2004) Methods Mol. Biol. 258:13-41), this technique uses standardized mixtures of competitive templates (CT) as internal standards in generating valid and reproducible numerical gene expression data for multiple genes. After the mRNA was converted to cDNA, the cDNA was mixed with a proprietary Standardized Mixture of Internal Standards™ (SMIS™, GeneExpress, Inc.). In the standard mixture, there is an internal standard CT for each gene to be measured as well as one for a reference gene. (i.e., β-actin, GAPDH). The amplicons produced by StaRT-PCR™ was then separated on capillary electrophoresis. The amount of internal standard CT or NT amplimer was determined by measuring each peak area. All data were then reported as number of molecules of mRNA for gene of interest per 10^6 molecules of reference gene (normalizer gene). Serial dilutions of the SMIS™ allow quantitative measurements over 7 log range of gene expression observed in cells from <10 to 10^7 molecules/10^6 molecules reference gene. Data presented in Table 8 are number of copies that have been normalized against 10^6 molecule of β-actin.

## O=C(NNC(O)c1cc2ccccc2cc1O)c1cc2ccccc2cc1O (stereo not shown) [SC23]
12 hours
  E2F4 expression: 1673.69 molecules/10^6 β-actin
  E2F5 expression: 486.8 molecules/10^6 β-actin
  JUN expression: 5419.7 molecules/10^6 β-actin
  MAD expression: 7122.48 molecules/10^6 β-actin
  MAP3K14 expression: 158.89 molecules/10^6 β-actin
  MYC expression: 5205.65 molecules/10^6 β-actin
  NFKB1 expression: 6131.17 molecules/10^6 β-actin
  PCNA expression: 5756.09 molecules/10^6 β-actin
  PTGS2 expression: 2138.52 molecules/10^6 β-actin
  RB1 expression: 3301.83 molecules/10^6 β-actin
  RBL2 expression: 2698.44 molecules/10^6 β-actin
  TGFBR2 expression: 6799.19 molecules/10^6 β-actin
  TGIF expression: 13858.11 molecules/10^6 β-actin
  TNFAIP1 expression: 22572.81 molecules/10^6 β-actin
  TNFRSF1A expression: 107.17 molecules/10^6 β-actin
  TNFSF10 expression: 288.01 molecules/10^6 β-actin
  TP53 expression: 1663.37 molecules/10^6 β-actin
  TRAF4 expression: 222.84 molecules/10^6 β-actin
24 hours
  BCL2L1 expression: 30504.02 molecules/10^6 β-actin
  BCL2 expression: 35.99 molecules/10^6 β-actin
  CASP1 expression: 142.49 molecules/10^6 β-actin
  CCNA2 expression: 241.1 molecules/10^6 β-actin
  CCND3 expression: 404.3 molecules/10^6 β-actin
  CCNE1 expression: 47.28 molecules/10^6 β-actin
  CCNG1 expression: 17499.15 molecules/10^6 β-actin
  CDC2 expression: 2054.95 molecules/10^6 β-actin
  CDC25C expression: 326.46 molecules/10^6 β-actin
  CDK7 expression: 9983.36 molecules/10^6 β-actin
  CDK8 expression: 1706.26 molecules/10^6 β-actin
  CDKN1A expression: 225.4 molecules/10^6 β-actin
  CDKN1B expression: 2092.37 molecules/10^6 β-actin
  CDKN2A expression: 163.48 molecules/10^6 β-actin
  CDKN2C expression: 904.8 molecules/10^6 β-actin
  CYP1A2 expression: 36.62 molecules/10^6 β-actin
  DAP expression: 56353.65 molecules/10^6 β-actin
  E2F4 expression: 1582.79 molecules/10^6 β-actin
  E2F5 expression: 1178.84 molecules/10^6 β-actin
  JUN expression: 8677.27 molecules/10^6 β-actin
  MAD expression: 13204.24 molecules/10^6 β-actin
  MAP3K14 expression: 143.47 molecules/10^6 β-actin
  MYC expression: 11117.04 molecules/10^6 β-actin
  NFKB1 expression: 16919.99 molecules/10^6 β-actin
  PCNA expression: 12795.59 molecules/10^6 β-actin
  PTGS2 expression: 19413.37 molecules/10^6 β-actin
  RB1 expression: 5935.72 molecules/10^6 β-actin
  RBL2 expression: 8604.92 molecules/10^6 β-actin
  TGFBR2 expression: 15367.23 molecules/10^6 β-actin
  TGIF expression: 15445.36 molecules/10^6 β-actin
  TNFAIP1 expression: 39858.96 molecules/10^6 β-actin
  TNFRSF1A expression: 26.61 molecules/10^6 β-actin
  TNFSF10 expression: 151.09 molecules/10^6 β-actin
  TP53 expression: 4238.06 molecules/10^6 β-actin
  TRAF4 expression: 242.44 molecules/10^6 β-actin
48 hours
  BCL2L1 expression: 21299.99 molecules/10^6 β-actin
  BCL2 expression: 22.29 molecules/10^6 β-actin
  CASP1 expression: 184.55 molecules/10^6 β-actin
  CCNA2 expression: 137.61 molecules/10^6 β-actin
  CCND3 expression: 641.75 molecules/10^6 β-actin
  CCNE1 expression: 146.61 molecules/10^6 β-actin
  CCNG1 expression: 25388.52 molecules/10^6 β-actin
  CDC2 expression: 497.44 molecules/10^6 β-actin
  CDC25C expression: 68.37 molecules/10^6 β-actin
  CDK7 expression: 19212.16 molecules/10^6 β-actin
  CDK8 expression: 3052.4 molecules/10^6 β-actin
  CDKN1A expression: 288.56 molecules/10^6 β-actin
  CDKN1B expression: 414.6 molecules/10^6 β-actin
  CDKN2A expression: 3382.09 molecules/10^6 β-actin
  CDKN2C expression: 650.26 molecules/10^6 β-actin
  CYP1A2 expression: 37.48 molecules/10^6 β-actin
  DAP expression: 70325.95 molecules/10^6 β-actin
  E2F4 expression: 3738.46 molecules/10^6 β-actin
  E2F5 expression: 2144.23 molecules/10^6 β-actin
  JUN expression: 9510.55 molecules/10^6 β-actin
  MAD expression: 12999.27 molecules/10^6 β-actin
  MAP3K14 expression: 720.55 molecules/10^6 β-actin
  MYC expression: 8944.84 molecules/10^6 β-actin
  NFKB1 expression: 26524.38 molecules/10^6 β-actin
  PCNA expression: 6913.72 molecules/10^6 β-actin
  PTGS2 expression: 26516.88 molecules/10^6 β-actin
  RB1 expression: 6552.57 molecules/10^6 β-actin
  RBL2 expression: 11571.33 molecules/10^6 β-actin
  TGFBR2 expression: 5072 molecules/10^6 β-actin
  TGIF expression: 19849.69 molecules/10^6 β-actin
  TNFAIP1 expression: 49955.6 molecules/10^6 β-actin
  TNFRSF1A expression: 21.29 molecules/10^6 β-actin
  TNFSF10 expression: 79.65 molecules/10^6 β-actin
  TP53 expression: 2821 molecules/10^6 β-actin
  TRAF4 expression: 298.28 molecules/10^6 β-actin

Reference: patent US20110034472A1, “Novel Compounds for Treatment of Cancer and Disorders Associated With Angiogenesis Function” (UNIVERSITY OF SOUTHERN CALIFORNIA, priority 2004, published 2011)
